Measurements taken from paper PMC8954523 (Pharmaceutics, 2022).
Converted amounts (≈) assume the structure as drawn. “And” between values parts separate entries of the source, which are not always exact repeats. Equal entries are not always repeated. Where two headings read alike, the source gives them in different places.

Experiments:
[1] = Hypothetical transfer thermodynamic functions from solvation functions; type: physicochemical; conditions: 298.15 K; for TΔStr / ΔGtr / ΔHtr / ΔStr / ζHtr / ζTStr: hypothetical
Protocol: The impact of the specific interactions on the solvation process was estimated by analyzing the thermodynamic functions of the hypothetical transfer from n-hexane—an inert solvent interacting with the drugs only non-specifically—to water, 1-octanol, and ethanol. Besides this, the hypothetic transfer from water to 1-octanol is significant as a model of the drug penetrating through the lipophilic biological membranes. The transferring thermodynamic parameters listed in Table 4 were calculated as a difference (taking into account the sign of the thermodynamic function) between the respective functions in a solvent (1-octanol/water/ethanol) and in n-hexane and between 1-octanol and water.
The relationship between the specific and non-specific solvation thermodynamic contributions was disclosed using the εH and εS parameters calculated as follows:(20) εH=(ΔHspec/ΔHnon−spec)⋅100%where ΔHspec=ΔHtr(n−hexane→solvent)and ΔHnon−spec=ΔHsolv(n−hexane) (21) εS=(ΔSspec/ΔSnon−spec)⋅100%where ΔSspec=ΔStr(n−hexane→solvent)and ΔSnon−spec=ΔSsolv(n−hexane)

[2] = Apparent distribution coefficient, 1-octanol/water, isothermal shake-flask; type: physicochemical; conditions: 298.15 K
Protocol: (§1) The well-known isothermal shake-flask method was applied for the determination of the apparent distribution coefficients in the 1-octanol/water ( Dappoct/w ) and n-hexane/water ( Dapphex/w ) systems. The mutually saturated solvents were prepared by mixing water and organic phases for 24 h and settling and separating from each other. The stock solutions of the drug were made from 1-octanol saturated with water for the 1-octanol/water distribution, and n-hexane saturated with water for the n-hexane/water system. An aliquot of the stock solution was placed in a glass vial together with an aliquot of the respective phase and mixed for 24 h at five temperatures, from 293.15 to 313.15 K (±0.1 K). The concentrations of the compounds were determined spectrophotometrically (Shimadzu 1800, Kyoto, Japan) in a UV region, with an accuracy of 2–4%. The reported experimental values represent the average of at least four replicate experiments.
(§2) The apparent distribution coefficients were calculated from the molar concentrations of the substance in the phases using the following equation:(10) DCorg/w=C2org/w/C2w/org where DCorg/w is the apparent distribution coefficient, C2org/w and C2w/org are the concentrations (M) of the compound after the distribution in the 1-octanol or n-hexane and water phases, respectively. The apparent distribution coefficients in the mole fraction scale ( DXorg/w ) were calculated by the equation:(11) DXorg/w=X2org/w/X2w/org where X2org/w and X2w/org are the concentrations (mole fract.) of the compound after distribution. The standard Gibbs energy of the transfer ( ΔGtr0) from water to the organic phase was calculated as follows:(12) ΔGtr0=−RT(lnDXorg/w)

[3] = Apparent distribution coefficient, n-hexane/water, isothermal shake-flask; type: physicochemical; conditions: 298.15 K
Protocol: as §1, §2

[4] = Transfer thermodynamic functions from distribution experiments (real transfer); type: physicochemical; conditions: 298.15 K
Protocol: as §2
The transfer enthalpy ( ΔHtr0) was derived from the temperature dependences of the distribution coefficients by the van’t Hoff approach as:(13) ∂(lnDXorg/w)/∂T=ΔHtr0/RT^2
The standard transfer entropy ( ΔStr0 ) was determined by the equation:(14) ΔGtr0=ΔHtr0−TΔStr0
As follows, additional information on the thermodynamic functions of this parameter (enthalpies and entropies) was obtained from the temperature dependences in order to disclose the transfer (n-hexane → 1-octanol) thermodynamic mechanisms. To this end, the ∆ln DX values (expressed in mole fraction units) characterizing the transfer (n-hexane → 1-octanol) were calculated as ∆ln DX = ln DXoct/w − ln DXhex/w and the respective thermodynamic functions were determined using Equations (12)–(14). The resulting temperature dependences and the contributions of the enthalpy and entropy terms to the free Gibbs energy of the hypothetical and “real” transfers are shown in Figure 5 and Table 6. […] At the same time, the thermodynamic mechanism of the (n-hexane → 1-octanol) transfer differs from the (water → organic solvents) transitions. In particular, the (n-hexane → 1-octanol) transfer process is enthalpy determined (| ΔHtr0 | > | TΔStr0 |) similar to the (water → 1-octanol) one. Nevertheless, TΔStr0 < 0 testifies to the ordering of the system as opposed to water → 1-octanol and water → n-hexane ( TΔStr0 > 0). It can be concluded that the mechanism of the (n-hexane → 1-octanol) transfer is absolutely different from the (water → n-hexane) and partially agrees with the (water → 1-octanol) transition. Importantly, the regularities estimated from the transferring diagram analysis match the results obtained using the Hansen parameters ( Δδt ^water > Δδt ^n-hexane > Δδt ^1-octanol).

[5] = Hypothetical transfer thermodynamic functions from solvation functions; type: physicochemical; conditions: water → n-hexane
[6] = cited from earlier work
[7] = n-hexane → 1-octanol, from Δ lnDX
[8] = water → 1-octanol, real transfer
[9] = water → n-hexane, real transfer

Structure (SMILES): CC(O)(CS(=O)(=O)c1ccc(F)cc1)C(=O)Nc1ccc(C#N)c(C(F)(F)F)c1 (stereo not shown) [BCL, bicalutamide]
- εH ([1]; n-hexane → 1-octanol): 36.6%
- εS ([1]; n-hexane → 1-octanol): 30.2%
- TΔStr ([1]; n-hexane → 1-octanol): −13.9 kJ⋅mol^−1
- ΔGtr ([1]; n-hexane → 1-octanol): −13.7 kJ⋅mol^−1
- ΔHtr ([1]; n-hexane → 1-octanol): −27.6 kJ⋅mol^−1
- ΔStr ([1]; n-hexane → 1-octanol): −46.6 J⋅mol^−1⋅K^−1
- ζHtr ([1]; n-hexane → 1-octanol): 66.5%
- ζTStr ([1]; n-hexane → 1-octanol): 33.5%
- εS ([1]; n-hexane → ethanol): 5.0%
- TΔStr ([1]; n-hexane → ethanol): −2.3 kJ⋅mol^−1
- ΔGtr ([1]; n-hexane → ethanol): −18 kJ⋅mol^−1
- ΔHtr ([1]; n-hexane → ethanol): −20.3 kJ⋅mol^−1
- ΔStr ([1]; n-hexane → ethanol): −7.7 J⋅mol^−1⋅K^−1
- ζHtr ([1]; n-hexane → ethanol): 89.8%
- ζTStr ([1]; n-hexane → ethanol): 10.2%
- εH ([1]; n-hexane → water): 16.4%
- εS ([1]; n-hexane → water): 37.4%
- TΔStr ([1]; n-hexane → water): −17.2 kJ⋅mol^−1
- ΔGtr ([1]; n-hexane → water): 4.8 kJ⋅mol^−1
- ΔHtr ([1]; n-hexane → water): −12.4 kJ⋅mol^−1
- ΔStr ([1]; n-hexane → water): −57.7 J⋅mol^−1⋅K^−1
- ζHtr ([1]; n-hexane → water): 41.9%
- ζTStr ([1]; n-hexane → water): 58.1%
- TΔStr ([1]; water → 1-octanol): 3.3 kJ⋅mol^−1
- ΔGtr ([1]; water → 1-octanol): −18.5 kJ⋅mol^−1
- ΔHtr ([1]; water → 1-octanol): −15.2 kJ⋅mol^−1
- ΔStr ([1]; water → 1-octanol): 11.1 J⋅mol^−1⋅K^−1
- ζHtr ([1]; water → 1-octanol): 82.2%
- ζTStr ([1]; water → 1-octanol): 17.8%
- experimental over calculated distribution coefficient ([2]; 1-octanol/water): 3.3 fold
- logP at 24 h ([2]; 1-octanol/water, read-out: logDCoct/w, experimental): 2.82 ± 0.09
- DCoct/w, experimental apparent distribution coefficient ([2]; 1-octanol/water, molarity scale): 662.29 ± 20.22
- ∆logDcalc ([2]; from calculated distribution coefficients): 2.30
- ∆logD ([2]; logDCoct/w − logDChex/w, experimental): 2.55
- DC/calcoct/w, calculated distribution coefficient ([2]; ratio of molar solubilities in 1-octanol and water): 199.02 ± 12.00
- experimental over calculated distribution coefficient ([3]; n-hexane/water): 1.9 fold
- DChex/w, experimental apparent distribution coefficient ([3]; n-hexane/water, molarity scale): 1.88 ± 0.04
- DC/calchex/w, calculated distribution coefficient ([3]; ratio of molar solubilities in n-hexane and water): 1.00
- DXorg/w (Δ lnDX parameter line) ([4]; 1-octanol/n-hexane (n-hexane → 1-octanol), mole fraction scale): 425.33
- TΔStr0 [4, 7]: -4.18 kcal/mol
- ΔGtr0 [4, 7]: -3.59 ± 0.096 kcal/mol
- ΔHtr0 [4, 7]: -7.77 ± 0.382 kcal/mol
- ΔStr0 [4, 7]: −58.7 ± 4.1 J⋅mol^−1⋅K^−1
- TΔStr0 [4, 8]: 1.55 kcal/mol
- ΔGtr0 [4, 8]: -5.14 kcal/mol and -5.14 ± 0.096 kcal/mol
- ΔHtr0 [4, 8]: -3.59 ± 0.048 kcal/mol
- ΔStr0 [4, 8]: 21.8 ± 0.7 J⋅mol^−1⋅K^−1
- TΔStr0 [4, 9]: 5.76 kcal/mol
- ΔGtr0 [4, 9]: -1.55 kcal/mol and -1.55 ± 0.048 kcal/mol
- ΔHtr0 [4, 9]: 4.21 ± 0.43 kcal/mol
- ΔStr0 [4, 9]: 80.8 ± 9.9 J⋅mol^−1⋅K^−1
- ΔGtr [5]: −4.8 kJ⋅mol^−1
- solubility ([6]; aqueous): less than 5 mg∙L^−1
- aqueous solubility ([6]; ref 10): approximately 3.7 μg·mL^−1
- aqueous solubility ([6]; ref 11): 8.85 µg/mL (≈ 20.6 µM)
